Source: paper PMC3920557 (The Journal of Experimental Medicine, 2014)
Ends that are not written are not given here.

Assays:
[1] = Solubility and aggregation of peptide; format: physicochemical
OB1 B cells = test: ERK1/2 phosphorylation in OB1 B cells; format: cell-based, mouse; details: 0.5 µM, 1 and 3 min; AGA 17-mer 3 min (Fig. 2 B)
[2] = system: OB1-MHC class II GFP B cells; test: Peptide internalization by confocal microscopy, OB1 MHC II GFP B cells; format: cell-based, mouse; details: Alexa Fluor 647-conjugated versions, 1 µM, 10 min, washed, confocal microscopy (Fig. 1 F)

Sequence | water solubility [1] | ERK1/2 phosphorylation, nested peptides (OB1 B cells) | antigen internalization in OB1-MHC class II GFP B cells [2]
FDKLPGFGDSIEAQGGK [FGD 17-mer] | water-soluble | – | –
FDKLPGAGASIEAQGGK [AGA 17-mer] | – | did not stimulate | did not detect any
